Test results published in patent US12691114B2, “Compositions for inhibition of herpesviruses” (The Medical College of Wisconsin, Inc., priority 2020, dated 2026).
Read-outs that look alike come from different tables or passages of the source.

Key:
HCMV TB40 = assay: Drug combination with letermovir, plaque assay TB40, Bliss model; type: cell-based, human cytomegalovirus; conditions: read-out: EC50 (μM) of Compound 2
Description: (§1) Drug combination and analysis: These experiments were performed as previously reported^40. The combination of GCV and each compound was tested using the pp28-luciferase. Briefly, 2×10^6 HFFs/plate were seeded in 96-well plates and infected with the pp28-luciferase Towne HCMV strain (MOI=1). First, a dose response curve was generated for each drug individually to determine its EC50. Then, drugs were combined at twice their EC50, diluted in DMEM with 4% FBS, followed by serial dilution and added together after infection. Luciferase activity of the combination and each drug individually was quantified at 72 hpi. The combination of letermovir and each of the new compounds was tested by the plaque assay using TB40. The same principle applied in this assay for the drug combination effect, and plaques were counted at 8 dpi. The Bliss model was used to calculate the effect of each drug combination on pp28-luciferase activity and plaque reduction. In this model, drug combination represents the product of two probabilistically independent events as described in the following equation^41.
(§2) [formula] Where D is the drug concentration, m is the slope, and EC50 is the effective concentration resulting in 50% virus inhibition. The combined effect of two inhibitors (Fu, fractional unaffected) is computed as the product of individual effects of the two inhibitors, Fu1 and Fu2. If the ratio of observed fold inhibition divided by the expected fold inhibition is greater than 1, the compounds are synergistic. If the ratio is less than 1, the combination is considered antagonistic, and if it equals to 1 the combination is additive.
Pattern of drug combination with GCV and letermovir: The effect of each compound alone or in combination with GCV or letermovir was tested in HCMV-infected HFFs. […] A ratio of observed fold inhibition divided by the expected fold inhibition of >1 was considered drug synergy, <1 as drug antagonism, and =1 as additive. For letermovir and its combination with each of the five compounds the EC50 was determined based on plaque assay. The combination of GCV and 2955 was also tested by plaque assay. All other combinations and Bliss coefficients were measured by pp28- luciferase.

Epstein Barr Virus (EBV) = assay: Inhibition of lytic EBV replication in Akata cells, real-time PCR of BALF5; type: cell-based; conditions: real-time PCR at 48 hours, NA = Not active
Description: Inhibition of lytic Epstein Barr Virus (EBV) replication: Akata cells (0.5×10^6/well of 24-well plate) latently infected with EBV were induced with 100 μg/ml of goat antihuman IgG (Sigma). Compounds and GCV control were added to triplicate wells immediately after the addition of human IgG. Cells were collected 48 hours after lytic induction for DNA quantification. Cellular DNA was purified using Wizard SV Genomic Kit (Promega, Madison, WI). The effect of the compounds on lytic induction of EBV was analyzed by real-time PCR of the EBV DNA polymerase gene, BALF5^38.
Inhibition of other herpesviruses: Inhibition of herpes simplex 1 and 2 (HSV1, HSV2), Epstein Barr virus (EBV) and mouse CMV (MCMV) was tested with the five compounds. Plaque reductions assays were used for HSV1, HSV2 and MCMV. Inhibition of lytic EBV replication was measured by real-time PCR in AKATA cells following IgG induction. Only MLS8554 was active against HSV1, HSV2 and MCMV (Table 2).

[1] = tested on: HCMV Towne (pp28-luciferase); assay: pp28-luciferase HCMV Towne assay in HFFs, luciferase activity at 72 hpi; type: cell-based, human cytomegalovirus
Excerpt: A GCV-resistant HCMV pp28-luciferase that contains a C607Y mutation in UL97 was reported^37. The HCMV TB40 strain was obtained from ATCC (VR-1578). Clinical isolates of Human Herpesvirus 1 and 2 (HSV1, HSV2) were collected from the Johns Hopkins Microbiology laboratory without identifiers that could link them to a specific patient. Mouse CMV (MCMV) Smith strain (ATCC VR-1399) was used for infection of MEFs.
Luciferase activity: Cell lysates were collected at 72 hpi and luciferase activity was determined using the Glomax-Multi+Detection System (Promega, Madison, WI) as described previously^20.
(§3) HCMV inhibition was measured by luciferase activity of pp28-recombinant Towne and pp28 GCV-resistant Towne strains of HCMV (72 hpi) and by plaque reduction using HCMV Towne or TB40 (10 days). Viral protein expression was measured by Western blot.

in vitro = conditions: human
Description: (§4) Cytotoxicity assay: MTT assay was performed as described by manufacturer's instructions (Sigma-Aldrich). Non-infected cells were treated with compounds for 72 h or 10 days (same time points of the antiviral assay), and 20 μL/well of MTT [3-(4, 5-Dimethyl-2-thiazolyl)-2, 5-diphenyl-2H-tetrazolium bromide], 5 mg/mL in phosphate buffered saline (PBS)] was added to each well. After shaking at 150 rpm for 5 min the plates were incubated at 37° C. for 2-3 h. Conversion of yellow solution to dark blue formazan by mitochondrial dehydrogenases of living cells was quantified by measuring absorbance at 560 nm.
as §3

HCMV Towne = assay: Add-on and removal assays, luciferase at 72 hpi; type: cell-based, human cytomegalovirus; conditions: for stage of maximal activity during HCMV replication, in words: add-on and removal assays; for add-on assay result, in words: compound added at times after infection; for add-on assay result, in words / removal assay result, in words: luciferase 72 hpi; for removal assay result, in words: compound removed at times after infection
Description: Add-on and removal assays: These assays were performed to identify at which stage during HCMV replication the compounds had maximal activity. In the add-on group, compounds were added to infected HFFs at 0, 6, 24, and 48 hpi, and luciferase activity was measured at 72 hpi. In the removal group, compounds were added immediately after virus infection and were subsequently removed after 0, 6, 24, and 48 h; luciferase was measured at 72 hpi.
Timing of HCMV inhibition: Add-on and removal assays were performed. Compounds were added or removed at 0, 6, 12, 24, 36 and 48 hpi, and luciferase activity was measured at 72 hpi.

[2] = molecular target: pp28-luciferase Towne HCMV; assay: Drug combination with GCV, pp28-luciferase Towne, Bliss model; type: cell-based, human cytomegalovirus; conditions: combination experiment with GCV, pp28-luciferase; read-out: EC50 (μM) of Compound 2
Description: as §1, §2
Pattern of drug combination with GCV and letermovir: The effect of each compound alone or in combination with GCV or letermovir was tested in HCMV-infected HFFs. […] For letermovir and its combination with each of the five compounds the EC50 was determined based on plaque assay. […] All other combinations and Bliss coefficients were measured by pp28- luciferase.

non-infected HFFs = assay: in vitro
Description: as §4, §3

[3] = Human betaherpesvirus 5, combination experiment with Letermovir
[4] = Human betaherpesvirus 5, read-out: EC50—Towne (μM)
[5] = combination experiment with Letermovir
[6] = pp28-luciferase Towne, HFFs, 72 hpi, read-out: EC50—Towne

`CCN1CCN(CCCNC(=O)c2ccc3c(c2)sc2nc(-c4ccc(OC)cc4)cn23)CC1` [NFU1827, N-[3-(4-ethylpiperazin-1-yl)propyl]-4-(4-methoxyphenyl)-7-thia-2,5-diazatricyclo [6.4.0.02,6] dodeca-1(8),3,5,9,11-pentaene-10-carboxamide] showed an EC50 (HCMV TB40; [3]) of 0.69 ± 0.07 µM, an EC50 (Epstein Barr Virus (EBV); human gammaherpesvirus 4, IgG induction) of 1920 ± 100 nM and an EC50 [1, 4] of 0.85 ± 0.1 µM. The CC50 (in vitro) was 70900 nM, the “stage of maximal activity during HCMV replication, in words” value (from here on “stage”) (HCMV Towne) was “immediate early-early” and the “add-on assay result, in words” value (HCMV Towne) was “lost its ability to inhibit HCMV”. The “removal assay result, in words” value (HCMV Towne) was “significant HCMV suppression”.

With `CC(C)NC(=O)C1CCN(C(=O)c2cc3sccc3n2Cc2ccc(Cl)cc2)CC1` [NCGC2955, 1-(4-(4-chlorobenzyl)-4H-thieno[3,2-b]pyrrole-5-carbonyl)-N-isopropylpiperidine-4-carboxamide] the EC50 (HCMV TB40; [3]) was 3.19 ± 0.17 µM, the EC50 [1, 4] was 4.61 ± 1.4 µM and the “inhibition of luciferase activity, in words” value ([1]; compound after infection, MOI of 1 PFU/cell, 72 hpi) was “did not show a full dose response”. The CC50 (in vitro) was greater than 200000 nM, the “stage” value (HCMV Towne) was “early-late stage” and the “add-on assay result, in words” value (HCMV Towne) was “overlapped with GCV”. For the same molecule, the “removal assay result, in words” value (HCMV Towne) was “longer activity than GCV”.

With `CCc1ccc(NC(=O)[C@H](Cc2c[nH]c3ccccc23)NC(=O)[C@@H]2Cc3ccccc3CN2)cc1` [MLS8554] the EC50 [2] was 0.55 ± 0.02 µM, the EC50 (HCMV TB40; [5]) was 0.14 ± 0.02 µM and the “anti-HCMV activity, in words” value ([1]; all the HCMV strains used) was “active”. For the same molecule, the EC50 [1, 6] was 0.64 ± 0.1 µM, the CC50 (non-infected HFFs) was 86000 nM and the “stage” value (HCMV Towne) was “immediate early-early”. For the same molecule, the “add-on assay result, in words” value (HCMV Towne) was “activity was significantly reduced” and the “removal assay result, in words” value (HCMV Towne) was “near complete”.

`Nc1c(S(=O)(=O)c2cccs2)c2nc3ccccc3nc2n1Cc1ccccc1` [MLS8091] showed an EC50 [2] of 0.57 ± 0.07 µM, an EC50 (HCMV TB40; [5]) of 0.13 ± 0.05 µM and an EC50 (Epstein Barr Virus (EBV); IgG induction) greater than 10000 nM. For the same molecule, the EC50 [1, 6] was 0.39 µM, the CC50 (non-infected HFFs) was greater than 250000 nM and the “stage” value (HCMV Towne) was “early-late stage”. The “add-on assay result, in words” value (HCMV Towne) was “overlapped with that of GCV” and the “removal assay result, in words” value (HCMV Towne) was “showed earlier effects”.
